From article PMC8333425, “Discovery of a dual Ras and ARF6 inhibitor from a GPCR endocytosis screen” (Nature Communications, 2021)
Where “and” joins values, the source holds several entries; their conditions need not be identical. Identical values can stand only once.

Assays:
RhoA = molecular target: T1, RhoA (Homo sapiens, UniProt P61586); test: GST-Rhotekin-RBD pull-down of AT1R-mediated RhoA activation; assay type: cell-based; details: for Rho-GTP/Rho: GST-Rhotekin-RBD, listed as Comp 21
T1 construct: endogenous in cells; host or cells: HEK293SL
T1 sequence (P61586 whole entry): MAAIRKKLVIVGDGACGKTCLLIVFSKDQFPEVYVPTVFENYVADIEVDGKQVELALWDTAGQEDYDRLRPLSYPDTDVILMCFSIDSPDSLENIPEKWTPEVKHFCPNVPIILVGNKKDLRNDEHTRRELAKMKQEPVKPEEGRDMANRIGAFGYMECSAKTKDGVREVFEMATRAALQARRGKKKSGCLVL
Protocol: Activation of ARF1, ARF6, Ras, and Rho were assessed by using GST pull-down assays. HEK293SL cells were transiently transfected with 3 µg AT1R-flag only (Ras and Rho) or along with 500 ng HA-ARF6 (ARF6) or HA-ARF1 (ARF1). Forty-eight hours later, the HEK293 or MDA-MB-231 cells were serum-starved for 4 h with DMEM containing 20 mM HEPES then pretreated with DMSO or Rasarfin (50 µM) for 30 min. Cells were then stimulated with 1 µM AngII or 100 ng/ml EGF for 0 and 2 min. Cells were then washed once with ice-cold PBS and lysed for 30 min at 4 °C in 300 µl of lysis buffer (pH 7.5, 50 mM Tris-HCl, 140 mM NaCl, 5 mM MgCl2, 10% glycerol (v/v), 1% Nonidet P-40 (v/v), 1 mM dithiothreitol) supplemented with protease inhibitors (1 mM phenylmethyl-sulfonyl fluoride (PMSF), 10 µg/ml leupeptin, 5 µg/ml aprotinin, 1 µg/ml pepstatin A) and phosphatase inhibitors (20 mM NaF, 0.025 mM pervanadate). The samples were cleared by centrifugation and 30 µl (cell lysates) was kept for assessing total protein contents. The remaining was transferred to fresh tubes with 20 µg of either GST, GST-GGA3-PBD, GST-Raf1-RBD or GST-Rhotekin-RBD coupled to glutathione resin and rotated for 1–2 h at 4 °C. Beads were washed twice with lysis buffer and proteins were eluted in 25 μl 2x laemmli buffer by heating at 65 °C for 15 min. Proteins were resolved on 14% SDS-PAGE, transferred to nitrocellulose membranes, and immunoblotted for HA, Ras, RhoA, H-Ras, or ARF6. ImageLab 5.2 software was used to quantify the digital blots as fold of the amount of pulled down protein over total protein. Uncropped coomassie gels and immunoblots are provided in the Source Data file.

Rho = Rho BRET sensor (PKN-RBD-RlucII / rGFP-CAAX; Gα12/13), AT1R-mediated; assay type: cell-based, human
Protocol: HEK293SL cells were seeded at a density of 7.5 × 10^5 cells per 100-mm dish and 24 h later, transiently transfected as such. For receptor internalization experiments, cells were transfected with 0.12 μg AT1R-RlucII, B2R-RlucII, or β2AR-RlucII and 0.48 μg of either rGFP-CAAX (to assess removal from the PM) or rGFP-FYVE (to assess accumulation in the endosomes). For β-arrestin recruitment assays, cells were transfected with 0.48 μg of receptor-YFP along with 0.12 μg of β-arrestin-RlucII. For β-arrestin/AP-2 binding experiments, cells were transfected with 1 μg Flag-AT1R, 1 μg β2-Adaptin-YFP, and 0.12 μg β-arrestin2-RlucII. For G protein activation, cells were transfected with 3 μg of sp-Flag-AT1R along with either 4.5 μg of the Gαq-polycistronic BRET sensor or 0.24 μg of the Gαi3-RlucII and 0.6 μg of GFP10-Gγ2 and Gβ1 sensors or 0.12 μg PKN-RBD-RlucII and 0.48 μg of rGFP-CAAX. For PKC activation, cells were transfected with 3 μg of sp-Flag-AT1R and 0.18 μg of the PKC sensor. For GTPase activation experiments, cells were transfected with 1 μg Flag-AT1R, 0.48 μg of rGFP-CAAX, and either 0.12 μg of GGA3-PBD-RlucII, PAK-CRIB-RlucII or Raf-RBD-RlucII. For biosensor validation experiments, cells were additionally transfected with 500 ng Flag-K-Ras-WT, Flag-K-Ras-G12V, Flag-K-Ras-SOS-CAAX, HA-ARF6-WT, HA-ARF6-T27N, Myc-Rac1-WT, Myc-Rac1-Q61L or Myc-Rac1-T17N. For PI3K/Akt activation experiments, cells were transfected with 0.48 μg of rGFP-CAAX and 0.12 μg of Akt (PH)-RlucII. After 18 h of transfection, the media was replaced and cells were divided for subsequent experiments. Cells were detached and seeded onto poly-L-ornithine-coated 96-well flat white bottom plates (BrandTech Scientific) at a density of 2.5 × 10^4 cells per well in media. The next day, cells were washed once with Tyrode’s buffer (140 mM NaCl, 2.7 mM KCl, 1 mM CaCl2, 12 mM NaHCO3, 5.6 mM D-glucose, 0.5 mM MgCl2, 0.37 mM NaH2PO4, 25 mM HEPES, pH 7.4) and left in Tyrode’s buffer. For kinetics of β-arrestin recruitment or β-arrestin binding to receptor and AP-2 experiments, cells were serum starved for 30 min, pretreated with 21 (50 µM) or Barbadin (100 µM) for 30 min, stimulated with 100 nM AngII or 1 µM BK and BRET signals were monitored at indicated times using a Victor X Light plate reader (PerkinElmer). Coelenterazine H (final concentration of 5 µM) was added 3–5 min prior to BRET measurements. Filter set was 460/80 nm and 535/30 nm for detecting the RlucII Renilla luciferase (donor) and YFP (acceptor) light emissions, respectively. The BRET ratio was determined by calculating the ratio of the light emitted by YFP over the light emitted by the RlucII. For G protein activation, cells were serum starved, pretreated with compounds for 30 min, stimulated with 100 nM AngII for 2 min (Gαq, Gαi3, and Rho sensors) or 5 min (PKC sensor). For the kinetics of GTPase and PI3K/Akt activation, cells were serum starved, pretreated with 21 (50 µM) or Wortmannin (200 nM) for 30 min, stimulated with ligand (100 nM AngII or 100 ng/ml EGF) and BRET signals were monitored at indicated times. For concentration-response curves, cells were serum-starved, pretreated with various concentrations of compounds for 30 min and stimulated with ligand (100 nM AngII, 1 µM BK, 10 µM Isoproterenol (Iso) or 100 ng/ml EGF) in Tyrode’s buffer for 30 min for receptor internalization, 10 min for ARF6, 2 min for Rac and Rho activation and 5 min for Ras activation and PI3K/Akt activation. BRET signals were monitored using a Synergy2 (BioTek) microplate reader and coelenterazine 400a (final concentrations of 5 µM) added 3–5 min prior to BRET measurements. Filter set was 410/80 nm and 515/30 nm for detecting the RlucII Renilla luciferase (donor) and rGFP/GFP10 (acceptor) light emissions, respectively. The BRET ratio was determined by calculating the ratio of the light emitted by rGFP/GFP10 over the light emitted by the RlucII.

In the case of `CC(C)C(=O)N1CCN(c2ccc(NC(=O)c3cc4ccccc4o3)cc2Cl)CC1` [Compound 21], the “pull-down of Rho-GTP by GST-Rhotekin-RBD from cells stimulated with AT1R” value (RhoA; 50 μM) is reported as “nor did it prevent the pull-down of Rho-GTP”, the Rho-GTP/Rho (RhoA; AngII) is reported as 0.2491 and 0.2385 and 0.2151 and 0.2027 and the Rho-GTP/Rho (RhoA; Ctrl) is reported as 0.1261 and 0.1465 and 0.07786 and 0.1043. The “Gα12/13 engagement by AT1R (BRET sensor)” value (Rho; 50 μM) was “lack of inhibitory effects”, the “Rho MEAN (Fig.4d)” value (Rho; Log [Comp 21] (M) -4) was 111.903 and the “Rho MEAN (Fig.4d)” value (Rho; Log [Comp21] (M) -4.3) was 104.855. The “Rho MEAN (Fig.4d)” value (Rho; Log [Comp21] (M) -5) was 98.5192, the “Rho MEAN (Fig.4d)” value (Rho; Log [Comp21] (M) -5.3) was 89.4095 and the “Rho MEAN (Fig.4d)” value (Rho; Log [Comp 21] (M) -6) was 96.851. The “Rho MEAN (Fig.4d)” value (Rho; Log [Comp21] (M) -6.3) was 103.786, the “Rho MEAN (Fig.4d)” value (Rho; Log [Comp 21] (M) -7) was 100.394 and the “Rho BRET sensor signal (S_Fig.4b), single experiments” value (Rho; listed as Comp 21) was 0.2652 and 0.266 and 0.2953. For the same compound, the “AT1R-mediated activation of a Rho BRET sensor” value (Rho; up to 100 µM of 21) was “did not inhibit”.
